Laboratory results as given in publication PMC4434572, “Identification of novel drugs to target dormant micrometastases” (BMC Cancer, 2015).
Several values for one entry are separate records, joined by “and”; a condition that tells them apart may be missing. Identical values can stand only once. Like-named read-outs stand apart in the source and are kept apart here.

Key:
in vivo = settings: mouse
U251 (glioblastoma) = assay: Proliferation EC50 on Matrigel vs SISgel; format: cell-based
MDA-MB-435 cells [1] = assay: Western blot of protein levels after treatment; format: cell-based
Description: Protein content of selected proteins identified by reversed phase protein array (see supplementary materials) as being involved mechanistically in the response to DT320 was assayed by Western blot as described using the following antibodies. The following antibodies were purchased from Cell Signaling Technology (Beverly, MA) and diluted per manufacturer’s directions: Rabbit mAb Anti-Phospho-AKT (Ser473) (D9E) XP® #4060, Rabbit mAb anti-p38 MAPK (D13E1) XP® #8690, Mouse mAb anti-Phospho-SAPK/JNK (Thr183/Tyr185) (G9) #9255, Rabbit mAb anti-Phospho-CHK1 (Ser345) (133D3) #2348, Rabbit polyclonal anti-Phospho-CHK2 (Thr68) Antibody #2661, Rabbit polyclonal anti-BAX Antibody #2772, Rabbit polyclonal anti-Vinculin Antibody #4650, Mouse mAb anti-Cyclin D1 (DCS6) #2926, Rabbit mAb anti-Cyclin E2 (D52F9) b #3741, […], Mouse mAb anti-Cyclin B1 (V152) #4135, Rabbit mAb anti-cleaved PARP (Asp214) (D64E10) XP® #5625, Rabbit mAb anti-cleaved Caspase-3 (Asp175) (5A1E) #9654, Rabbit mAb anti-Nanog (D73G4), #4903; Rabbit mAb anti-Oct4 (C52G3) #2890; and Rabbit mAb anti-Sox2 (D6D9) #3579. Specificity of each antibody is illustrated on the company’s web page. For negative controls, pre-immune rabbit IgG was used. No signal was detected in the control IgG samples. No intensities or contrast were modified, but the appropriate bands were cut out using PhotoShop to prepare composite gel images.
To elucidate the mechanism of DT310 and DT320, cell cycle analysis and Western blotting was performed. The proteins for Western blot were selected from preliminary results using reverse phase protein array (RPPA) for DT320 and DT321 treated MDA-MB-435 and T24 cells. […] Proteins within these clusters showing the largest differences in protein expression and that were related to known anticancer drug action were confirmed by Western blot. Docetaxel was used as a positive control because it is known to induce a cell cycle arrest and apoptosis signature.

MDA-MB-435 cells [2] = assay: Proliferation (CFDA-AM esterase assay) of cells grown on SISgel, plastic or Matrigel, 48 h drug exposure; format: cell-based; settings: MDA-MB-435 grown on Matrigel (fully malignant phenotype)
MDA-MB-435-GFP cells = assay: Flank xenograft model of ECM-suppressed cells co-injected with SISgel; format: in vivo, nu/nu mice; settings: 45 mg/kg i.p. three times weekly for 3 weeks; 4 weeks after implantation
Description: The efficacy of DT320 was assessed using a flank xenograft model of ECM-suppressed cancer cells that we developed, as well as an orthotopic model of “triple-negative” breast cancer. All animal protocols were reviewed and approved by the OUHSC Institutional Animal Care and Use Committee according to criteria established by the NIH Office of Laboratory Animal Welfare, and animals were housed 5 per cage with enrichment (tubes) and wood chips in the AALAC-accredited OUHSC Animal Facility with a 12 h light/dark cycle. Animals had access to water and food ad libatum. Animals were monitored daily by trained facility personnel. In the flank model, GFP-labeled cells were co-injected with SISgel, which produces a suppressed, normalized phenotype that persists after the SISgel is resorbed, but which can re-emerge into active tumor growth after 30–60 days. Animals were all female nu/nu mice (NCI National Laboratory Frederick/Charles River animal production program). An optimized number of 5 × 10^5 GFP-labeled MDA-MB-435 cells in 100 μL DMEM medium, without additives, were mixed with 100 μL of SISgel and were kept on ice until injection to prevent polymerization of the SISgel. […] The cells injected into the flanks remained as a non-growing spot, as assessed by fluorometry of the spots and the lack of mitoses seen in tissue sections, for about 3–5 weeks before some began resuming malignant growth. […]

DU145 (prostate) = assay: Proliferation EC50 on Matrigel vs SISgel; format: cell-based

SMILES	MTD (in vivo; BALB/c, ip)	MTD (in vivo)	Ratio (U251 (glioblastoma); Matrigel/SISgel EC50, U251)	EC50 (U251 (glioblastoma); U251 on Matrigel, read-out: EC50 Matrigel)	EC50 (U251 (glioblastoma); U251 on SISgel, read-out: EC50 SISgel)	Cyclin D1 (CCND1) expression (MDA-MB-435 cells [1])	cleaved caspase 3 (MDA-MB-435 cells [1]; 48 h)	EC50 (MDA-MB-435 cells [2])	flank xenografts in which ECM-suppressed cells were extirpated / spots disappeared (MDA-MB-435-GFP cells)	EC50 (DU145 (prostate); DU145 on Matrigel, read-out: EC50 Matrigel)	EC50 (DU145 (prostate); DU145 on SISgel, read-out: EC50 SISgel)	Ratio (DU145 (prostate); Matrigel/SISgel EC50, DU145)
COc1cccc2c1C(=O)c1c(O)c3c(c(O)c1C2=O)C[C@@](O)(C(=O)CO)C[C@@H]3O[C@H]1C[C@H](N)[C@H](O)[C@H](C)O1 [Doxorubicin, reference compound]	1 mg/kg	1 mg/kg										
O=S(=O)([O-])c1cc(O)c2c(O)c(N=Nc3cccc4ccccc34)c(S(=O)(=O)[O-])cc2c1.[Na+].[Na+] [DT320, 4,5-Dihydroxy-3-(1-naphthalenylazo)-2,7-naphthalenedisulfonic acid disodium salt]			1.5	95 µM	64.6 µM	induced	increased signal	48.2 µM	six of eight and 6 of 8	183 µM	45.7 µM	4.0
